Experimental data as given in EP4640674A1, “CRYSTAL FORMS OF ETHOXIMOD, PREPARATION METHOD THEREFOR AND USE THEREOF” (Jiankuan (Suzhou) Biotechnology Co., Ltd, priority 2022, dated 2024).

Assay: Stability of crystal form C on drying (XRPD)
Type: physicochemical
From the text: The sample was subjected to a TGA test. From the above results, it is speculated that the crystal form C is an unstable channel hydrate that is prone to crystal transformation during drying and placement, making the preparation of a pure phase difficult.

With CCc1nc(-c2ccc(-c3ccc(CCC(N)(CO)CO)cc3)cc2)co1.Cl [crystal form C, 2-amino-2-{2-(4'-(2-ethyloxazol-4-yl)-[1,1'-biphenyl]-4-yl)ethyl}-1,3-propylene glycol hydrochloride] the “crystal form after drying (XRPD)” value (purged with nitrogen at room temperature for 3 h) was “partially crystal transformed into the crystal form A” and the “crystal form after drying (XRPD)” value (vacuum at 50 °C under reduced pressure, dried overnight) was “partially crystal transformed into a crystal form A”.
